The test system of one series is H1-HeLa cells. In words: Cytotoxicity (CC50) in mock-infected H1-HeLa cells, XTT dye reduction. The class given is cell-based, human. In outline:
(§1)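 XTT dye reduction (formazan, 450/650 nm) in H1-HeLa cells, mock-infected, gave CC50.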
(In general: Tetrazolium assays rely on reduction of a dye to a coloured formazan, in cell work by metabolically active cells.)

Experiment in series [1]: as above
As to conditions: human, H1-HeLa cells, mock-infected. Type of series: cell-based, human. In outline:
as §1

The target in series [2] is T1, Recombinant rhinovirus 3C protease, serotype 14 (Human rhinovirus 14, UniProt P03303).
T1 construct: Recombinant rhinovirus 3C proteases; made in house
In words: Inhibition of rhinovirus 3C protease (FRET assay, kobs/[I]), serotype 14. Type of series: biochemical. Particulars: pH 7.6, read-out: kobs/[I] (3C protease inhibition activity). Summed up: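 kobs/[I] values came from progress curves of reactions started by adding 50-100 nM protease to buffer (50 mM tris pH 7.6, 1 mM EDTA, 2% DMSO) containing compound and ~1 μM quenched DABCYL-EDANS substrate. Rising EDANS fluorescence reported cleavage.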

The test system of series [3] is strains of human rhinovirus (HRV). In words: Antirhinoviral H1-HeLa cell culture assay (XTT cell protection, EC50), other HRV strains. Particulars: read-out: EC50. The class given is cell-based, human rhinovirus in H1-HeLa cells. On the procedure:
Antirhinoviral H1-HeLa Cell Culture Assay:
In this cell protection assay, the ability of compounds to protect cells against HRV infection was measured by the XTT dye reduction method, which is described in Weislow et al., J. Natl. Cancer Inst. (1989), vol. 81, 577-586. H1-HeLa cells were infected with HRV-14 at a multiplicity of infection (m.o.i.) of 0.13 (virus particles/cell) or mock-infected with medium only. Infected or mock-infected cells were resuspended at 8×10^5 cells per mL, and incubated with appropriate concentrations of the compounds to be tested. Two days later, XTT/PMS was added to test plates and the amount of formazan produced was quantified spectrophotometrically at 450/650 nm. […] The therapeutic index (TI) was calculated by dividing the CC50 value by the EC50 value.
All strains of human rhinovirus (HRV) for use in this assay were purchased from American Type Culture Collection (ATCC), except for HRV serotype-14 (produced from the infectious cDNA clone constructed by Dr. Robert Rueckert, Institute for Molecular Virology, University of Wisconsin, Madison, Wis.). HRV stocks were propagated and viral assays were performed in H1-HeLa cells (ATCC). Cells were grown in minimal essential medium with 10% fetal bovine serum, available from Life Technologies (Gaithersburg, Md.).

A further series relates to HRV-14. In words: Antirhinoviral H1-HeLa cell culture assay (XTT cell protection, EC50), HRV-14. The class given is cell-based, human rhinovirus (HRV) serotype-14 in H1-HeLa cells. As to conditions: Rhinovirus B, HRV14, H1-HeLa. Summed up: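 XTT dye reduction (450/650 nm) measured survival of H1-HeLa cells two days after HRV-14 infection at m.o.i. 0.13 in the presence of compound, giving EC50. The therapeutic index is CC50 divided by EC50.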

Setting [4] is: Human rhinovirus sp., HRV3, H1-HeLa, HRV-3.
Setting [5] is: Human rhinovirus sp., HRV9, H1-HeLa, HRV-9.
Where [6] appears, read: Human rhinovirus sp., HRV16, H1-HeLa, HRV-16.
Where [7] appears, read: Human rhinovirus sp., HRV25, H1-HeLa, HRV-25.
Where [8] appears, read: Human rhinovirus sp., HRV39, H1-HeLa, HRV-39.
[9] abbreviates: Human rhinovirus sp., HRV87, H1-HeLa, HRV-87.
The mark [10] stands for this setting: Human rhinovirus sp., HRV10, H1-HeLa, HRV-10.
[11] abbreviates: Human rhinovirus sp., HRV13, H1-HeLa, HRV-13.
[12] abbreviates: Human rhinovirus sp., HRV78, H1-HeLa, HRV-78.

Molecules are shown by their SMILES. Where two headings read alike, the source gives them in different places. Where only a bound is given, the exact number is not on record here.

In general, CC50 refers to the concentration giving 50% cytotoxicity. Read a high CC50 as lower toxicity to the cells. By EC50 is commonly meant the concentration giving half of the maximal effect.

T1 sequence (P03303 1538-1719): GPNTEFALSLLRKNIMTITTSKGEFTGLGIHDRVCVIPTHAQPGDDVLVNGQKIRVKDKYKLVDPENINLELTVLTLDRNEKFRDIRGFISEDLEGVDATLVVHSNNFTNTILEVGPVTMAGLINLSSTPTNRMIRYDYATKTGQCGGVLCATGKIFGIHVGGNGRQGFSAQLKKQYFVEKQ

Turning to `CC[C@@H](C(=O)N[C@H](/C=C/C(=O)OC(C)(C)C)C[C@@H]1CCNC1=O)n1cccc(NC(=O)c2cc(C)on2)c1=O` [Compound 34, trans-(2′S,3″″S,4S)-4-(2′-{3″-[(5′″-Methylisoxazole-3′″-carbonyl)amino]-2″-oxo-2″H-pyridin-1″-yl}butyrylamino)-5-(2″″-oxopyrrolidin-3″″-yl)pent-2-enoic Acid tert-Butyl Ester], the CC50 with H1-HeLa cells (line of HRV-2), in the series on H1-HeLa cells (line of HRV-3), with H1-HeLa cells (line of HRV-9), with H1-HeLa cells (line of HRV-16), with H1-HeLa cells (line of HRV-25) and with H1-HeLa cells (line of HRV-39) was greater than 10 µM throughout. Moreover, the CC50 in the series on H1-HeLa cells (line of HRV-87) was greater than 10 µM. The CC50 at 2 days in series [1] (line of HRV-14) is greater than 10 µM. For the same compound, the kinact/KI in series [2] (HRV-14) was found to be 45100 M⁻¹ s⁻¹. The EC50 amounted to 0.154 µM in series [3] (H1-HeLa, HRV-2); 0.061 µM in series [3] (setting [4]); 0.593 µM in series [3] (setting [5]); 0.543 µM in series [3] (setting [6]); 0.923 µM in series [3] (setting [7]); 0.441 µM in series [3] (setting [8]). The values for the EC50 (in series [3] (setting [9]); in the series on HRV-14) were 0.033 µM and 0.122 µM, respectively.

As to `C#CC[C@@H](C(=O)N[C@H](/C=C/C(=O)OC1CCCCC1)C[C@@H]1CCNC1=O)n1cccc(NC(=O)c2cc(C)on2)c1=O` [Compound 55, trans-(2′S,3′″″S,4S)-4-[2′-(3″-{[1′″-(5″″-Methylisoxazol-3″″-yl)methanoyl]amino}-2′″-oxo-2′″H-pyridin-1′″-yl)pent-4″-ynoylamino]-5-(2′″″-oxopyrrolidin-3′″″-yl)pent-2-enoic Acid Cyclohexyl Ester], the CC50 in the series with H1-HeLa cells (HRV-1A), in the series with H1-HeLa cells (HRV-9), in the series on H1-HeLa cells (HRV-10) and in the series on H1-HeLa cells (HRV-25) was greater than 10 µM in each case. The compound further yielded a CC50 at 2 days in series [1] (HRV-14) greater than 10 µM. Also, the kinact/KI in series [2] (HRV-14 3C protease) is 34000 M⁻¹ s⁻¹. The EC50 in series [3] (H1-HeLa, HRV-1A) is 0.52 µM; in series [3] (setting [5]), 0.531 µM; in series [3] (setting [10]) it was 0.195 µM; in series [3] (setting [7]), 0.515 µM; in the series with HRV-14, 0.173 µM.

Regarding `CC[C@@H](C(=O)N[C@H](/C=C/C(=O)OC1CCCCC1)C[C@@H]1CCNC1=O)n1cccc(NC(=O)c2cc(C)on2)c1=O` [Compound 60, trans-(2′S,3′″″S,4S)-4-[2′-(3″-{[1′″-(5″″-Methylisoxazol-3″″-yl)methanoyl]amino}-2′″oxo-2′″H-pyridin-1′″-yl)butanoylamino]-5-(2′″″-oxopyrrolidin-3′″″-yl)pent-2-enoic Acid Cyclohexyl Ester], the cytotoxic concentration (CC50) in the series with H1-HeLa cells (HRV-1A), with H1-HeLa cells (HRV-9), with H1-HeLa cells (HRV-10) and with H1-HeLa cells (HRV-25) was greater than 10 µM in each case. The CC50 at 2 days in series [1] (HRV-14) was greater than 10 µM. In series [2] (HRV-14 3C protease), the kinact/KI amounted to 23000 M⁻¹ s⁻¹. Also, the EC50 was determined as 0.558 µM in series [3] (H1-HeLa, HRV-1A); 0.516 µM in series [3] (setting [5]); 0.368 µM in series [3] (setting [10]); 0.251 µM in series [3] (setting [7]); 0.173 µM in the series on HRV-14.

As to `C#CC[C@@H](C(=O)N[C@H](/C=C/C(=O)OC1CCCC1)C[C@@H]1CCNC1=O)n1cccc(NC(=O)c2cc(C)on2)c1=O` [Compound 40, trans-(2′S,3′″″S,4S)-4-[2′-(3″-{[1′″-(5″″-Methylisoxazol-3″″-yl)methanoyl]amino}-2′″-oxo-2′″H-pyridin-1′″-yl)pent-4″-ynoylamino]-5-(2′″″-oxopyrrolidin-3′″″-yl)pent-2-enoic Acid Cyclopentyl Ester], the CC50 in the series with H1-HeLa cells (line of HRV-2), in the series with H1-HeLa cells (line of HRV-3), in the series on H1-HeLa cells (line of HRV-9), in the series on H1-HeLa cells (line of HRV-11), with H1-HeLa cells (line of HRV-13) and with H1-HeLa cells (line of HRV-16) was greater than 10 µM throughout. Further, the cytotoxic concentration (CC50) with H1-HeLa cells (line of HRV-19), with H1-HeLa cells (line of HRV-23), in the series with H1-HeLa cells (line of HRV-25), in the series with H1-HeLa cells (line of HRV-39), in the series on H1-HeLa cells (line of HRV-78) and in the series with H1-HeLa cells (line of HRV-87) was greater than 10 µM in each case. This compound also returned a CC50 with H1-HeLa cells (line of HRV-Hanks) greater than 10 µM. Moreover, the CC50 at 2 days in series [1] (line of HRV-14) was greater than 10 µM. Also, in series [2] (HRV-14), the kinact/KI is 186000 M⁻¹ s⁻¹. The EC50 came out at 0.052 µM in series [3] (H1-HeLa, HRV-2); 0.055 µM in series [3] (H1-HeLa, HRV-23); 0.115 µM in series [3] (Human rhinovirus sp., H1-HeLa, HRV-Hanks); 0.056 µM in series [3] (setting [4]); 0.219 µM in series [3] (setting [5]); 0.006 µM in series [3] (Human rhinovirus sp., HRV11, H1-HeLa, HRV-11). For the same compound, the EC50 in series [3] (setting [11]) worked out at 0.148 µM; in series [3] (setting [6]), 0.177 µM; in series [3] (Human rhinovirus sp., HRV19, H1-HeLa, HRV-19) it was 0.06 µM; in series [3] (setting [7]) it was 0.49 µM; in series [3] (setting [8]), 0.163 µM; in series [3] (setting [12]) it was 0.123 µM. The EC50 amounted to 0.083 µM in series [3] (setting [9]) and 0.027 µM in the series on HRV-14.

Take `Cc1cc(C(=O)Nc2cccn([C@@H](Cc3ccccc3)C(=O)N[C@H](/C=C/C(=O)OC(C)C)C[C@@H]3CCNC3=O)c2=O)no1` [Compound 66, trans-(2′S,3′″″S,4S)-4-[2′-(3″-{[1′″-(5″″-Methylisoxazol-3″″-yl)methanoyl]amino}-2′″-oxo-2′″H-pyridin-1′″-yl)-3″-phenylpropanoylamino]-5-(2′″″-oxopyrrolidin-3′″″-yl)pent-2-enoic Acid Isopropyl Ester]: the half-maximal cytotoxic concentration (CC50) in the series with H1-HeLa cells (HRV-3), with H1-HeLa cells (HRV-9), with H1-HeLa cells (HRV-13), with H1-HeLa cells (HRV-16), in the series with H1-HeLa cells (HRV-39) and in the series on H1-HeLa cells (HRV-78) was greater than 10 µM in each case. In series [1] (HRV-14), this compound returned a CC50 at 2 days greater than 10 µM. Also, the kinact/KI in series [2] (HRV-14 3C protease) was determined as 480000 M⁻¹ s⁻¹. Moreover, the EC50 in series [3] (setting [4]) came out at 0.056 µM; in series [3] (setting [5]) it was 0.196 µM; in series [3] (setting [11]) it was 0.057 µM; in series [3] (setting [6]), 0.011 µM; in series [3] (setting [8]), 0.022 µM; in series [3] (setting [12]), 0.015 µM. This compound also yielded an EC50 in the series with HRV-14 of 0.155 µM.

`CCOC(=O)/C=C/[C@H](CCC(N)=O)NC(=O)[C@H](Cc1ccccc1)n1cccc(NC(C)=O)c1=O` [Compound 8, trans-(2′S,4S)-4-[2′-(3″-Acetylamino-2″-oxo-2″H-pyridin-1″-yl)-3′-phenypropionylamino]-6-carbamoylhex-2-enoic Acid Ethyl Ester] came in with a cytotoxic concentration (CC50) at 2 days in series [1] (line of HRV-14) greater than 10 µM. Moreover, the kinact/KI in series [2] (HRV-14) turned out to be 7660 M⁻¹ s⁻¹. Besides, the EC50 with HRV-14 (HRV-14, read-out: EC50) stood at 0.888 µM.

In series [1] (line of HRV-14), `O=C1OCC/C1=C\[C@H](C[C@@H]1CCNC1=O)NC(=O)[C@H](Cc1ccc(F)cc1)n1cccc(NC(=O)C2CCCC2)c1=O` [Compound 16, trans-(2′″S,2′″S,3′″″S)-Cyclopentanecarboxylic acid(1-{2′-(4″-fluorophenyl)-1′-[2′-(2″″-oxo-dihydrofuran-3″″-ylidene)-1-(2′″″-oxopyrrolidin-3′″″-ylmethyl)ethylcarbamoyl]ethyl}-2-oxo-1,2-dihydropyridin-3-yl)amide] gave a CC50 at 2 days greater than 10 µM. Besides, the kinact/KI in series [2] (HRV-14) was determined as 74000 M⁻¹ s⁻¹. In the series on HRV-14 (HRV-14, read-out: EC50), the EC50 worked out at 0.325 µM.

In the case of `CCOC(=O)/C=C/[C@H](C[C@@H]1CCNC1=O)NC(=O)[C@H](Cc1ccccc1)n1cccc(NC(=O)OCc2ccccc2)c1=O` [Compound 19, trans-(2′S,3′″S,4S)-4-[2′-(3″-Benzyloxy-carbonylamino-2″-oxo-2″H-pyridin-1″-yl)-3′-phenylpropionylamino]-5-(2′″-oxopyrrolidin-3′″-yl)pent-2-enoic Acid Ethyl Ester], the 50% cytotoxic concentration (CC50) at 2 days in series [1] (line of HRV-14) is greater than 10 µM. In addition, the kinact/KI in series [2] (HRV-14) was found to be 380000 M⁻¹ s⁻¹. In the series with HRV-14, this compound returned an EC50 of 0.003 µM.

These data come from patent US6514997B2, “Antipicornaviral compounds and compositions, their pharmaceutical uses, and materials for their synthesis” (Agouron Pharmaceuticals, Inc., priority 1999, dated 2003).
